Where a SMILES comes first, the peptide text is derived from it.
System: B. cereus

With CC[C@H](C)[C@H](NC(=O)[C@H](CC(C)C)NC(=O)[C@H](C)NC(=O)[C@@H]1CCCN1C(=O)[C@H](C)NC(=O)[C@@H](NC(=O)[C@H](CCCCN)NC(=O)[C@@H](N)CCCNC(=N)N)C(C)C)C(=O)N[C@@H](CCCCN)C(=O)N[C@@H](CO)C(=O)N[C@@H](Cc1ccccc1)C(=O)N[C@H](C(=O)N[C@@H](Cc1ccccc1)C(=O)N[C@@H](CC(C)C)C(=O)N[C@@H](Cc1ccccc1)C(=O)N[C@@H](CCCCN)C(=O)N[C@@H](Cc1ccccc1)C(=O)N[C@@H](CCCCN)C(=O)N[C@@H](CCCCN)C(=O)NCC(=O)O)C(C)C [Shuffled 51] (H-RKVAPALIKSFVFLFKFKKG-OH; N-terminus and C-terminus assumed) the “MIC B. cereus” value was “+ (key: +: MIC greater than 256 ug/mL; ++: MIC greater than 128 ug/mL, not sufficiently soluble to test as 256 ug/mL)”.

— patent publication US7739055B2, “Methods and systems for generating and evaluating peptides” (priority 2005, dated 2010)
